# Experimental data reported in PMC9555642 (PLoS ONE, 2022).
# How the values were obtained:
# HDAC5 = biological target: T1, HDAC5 (Homo sapiens, UniProt Q9UQL6); assay: HDAC enzymatic activity (Eurofins); assay type: biochemical; details: Class IIA; ACY-1083 mean of two separate measurements, Ricolinostat and Tubastatin A one measurement
# T1 construct: purchased Eurofins Pharma Discovery Services 2494
# hERG = biological target: T2, hERG (Homo sapiens, UniProt Q12809); assay: Cardiovascular ion channel panel, SyncroPatch 384PE patch clamp; assay type: cell-based; details: CHO K1 cell line, room temperature, 6 point cumulative assay
# T2 construct: expressed in transfected cells; host or cells: Chinese hamster ovary K1 cell line
# [1] = Spike test in ALI cell media (stability and binding to plastic and media components); assay type: in vitro ADME
# Experimental: Compound concentration was then analysed after 18hrs incubation at 37 °C by LC-MSMS (Method DMPK&BAC 001–04).
# Sigma-1 receptor = biological target: T3, Sigma-1 receptor (Homo sapiens, UniProt Q99720); assay: Secondary pharmacology panel (Eurofins); assay type: binding
# T3 construct: purchased Eurofins Pharma Discovery Services
# Experimental: (§2) Second pharmacology screening was performed at Eurofins Pharma Discovery Services in a panel of 190 in vitro radioligand binding and enzyme assays covering a diverse set of enzymes, receptors, ion channels, and transporters.
# COPD HBEC ALI cultures [2] = assay: Cigarette smoke extract (CSE) challenge in ALI, FITC-dextran permeability; assay type: cell-based, human; details: 10 μM pre-treatment 3 days, CSE 1, 3 and 6% for 48 hours, two COPD donors
# Experimental: (§1) The paracellular permeability was determined by using fluorescein isothiocyanate labeled 4kD-dextran (Sigma-Aldrich, St. Louis, USA). 18 hours after addition of 0.2 mg FITC-dextran in 200 μL medium to the apical side of the ALI cultures, the fluorescence in the basolateral medium was measured using PHERAstar FSX (excitation 485 nm and emission 520 nm) (BMG LABTECH, Ortenberg, Germany). The time point was chosen for optimal window in the assays as well as practical reasons and has been kept consistent in between different stimulations throughout this work. Data was plotted as fold-change of 0.1% DMSO control.
# Cigarette smoke extract (CSE) experiments were performed using CSE containing media. In short, smoke from five filterless Kentucky research cigarettes, 3R4F (Kentucky Tobacco Research and Development Center, Lexington, USA), was bubbled through 25 ml of PBS at a speed of five minutes per cigarette. The CSE was filtered through a 0.2 μm sterile filter and stored at -80°C until addition to the basolateral side of HBEC ALI cultures from two COPD donors. […] Permeability was measured after 48 hours.
# HDAC4 = biological target: T4, HDAC4 (Homo sapiens, UniProt P56524); assay: HDAC enzymatic activity (Eurofins); assay type: biochemical; details: Class IIA; ACY-1083 mean of two separate measurements, Ricolinostat and Tubastatin A one measurement
# T4 construct: purchased Eurofins Pharma Discovery Services 2493
# [3] = system: healthy HBEC at ALI cultures; assay: Ciliary beat frequency; assay type: cell-based, human; details: TNF-challenged healthy HBEC
# Experimental: For cilia beating frequency (CBF) and cell velocity measurements, donor cells of primary healthy HBECs were amplified on rat tail collagen I coated flasks and seeded on 12-mm-diameter Transwell inserts.
# CBF was quantified for the differentiated healthy HBECs treated with vehicle, TNF, and TNF + ACY-1083. The plates containing the pseudostratified epithelia were incubated at 37 °C with 5% CO2 in the 3i Marianis/Yokogawa Spinning-Disk Confocal microscope (Leica Microsystems, Sugar land, USA) as reported in our previous publications. High-speed time-lapse videos were taken at 32X air at 100 Hz with a total of 250 frames using a scientific Hamamatsu C11440-42U30 CMOS camera (Bridgewater, USA). Five areas were imaged per insert. A Matlab (R2020a) script (validated against SAVA) (previously described in [58] was used to determine average CBF per video, to generate a heat map indicating CBF.
# COPD HBEC ALI cultures [4] = assay: Paracellular permeability (FITC-dextran) in unchallenged ALI cultures; assay type: cell-based, human; details: 10 μM basolaterally for eight days, no challenge, four COPD donors, p = 0.0023
# Experimental: Passage one cells were seeded into T75 cell culture flasks (250,000 cells/flask) and expanded in PneumaCult ExPlus medium (StemCell Technologies, Vancouver, Canada) at 37°C, 5% CO2. Once cells reached 70% confluency, they were dissociated with TrypLE Express dissociation media (Thermo Fisher Scientific, Waltham, USA) and frozen at -150°C in ExPlus with 10% DMSO. Passage two cells were thawed and seeded (20,000 cells/membrane) into 24-well HTS Transwell plates (Corning, Wiesbaden, Germany) for air-liquid interface (ALI) culturing. Cells were expanded in ExPlus medium until >50% confluent (four days). Apical medium was then removed, and basolateral medium was replaced with PneumaCult ALI medium (StemCell Technologies). Medium was changed three times per week during a four-week long differentiation phase.
# as §1, with “Data was plotted as fold-change of 0.1% DMSO control.” left out
# IKs = biological target: T5, IKs (Homo sapiens, UniProt P51787); assay: Cardiovascular ion channel panel, SyncroPatch 384PE patch clamp; assay type: cell-based; details: CHO K1 cell line, room temperature, 6 point cumulative assay
# T5 construct: expressed in transfected cells; host or cells: Chinese hamster ovary K1 cell line
# [5] = biological target: T6, dopamine active transporter (DAT) (Homo sapiens, UniProt Q01959); assay: Secondary pharmacology panel (Eurofins); assay type: binding
# T6 construct: purchased Eurofins Pharma Discovery Services
# Experimental: as §2
# COPD HBEC ALI cultures [6] = assay: Mucociliary clearance (bead tracking), TNF challenge; assay type: cell-based, human; details: TNF 20 ng/ml, day ten, 3 COPD donors, p = 0.0026
# Experimental: In the TNF (20 ng/ml) challenged cultures, the apical surfaces were washed with pre-warmed PBS the day before addition of 50 μL of CountBright Absolute Counting beads (Invitrogen, Carlsbad, CA, USA) diluted 1:10 000 in PBS with Mg^2+ and Ca^2+. Inserts were transferred to a 12-well glass bottom plate (Cellvis, Mountain View, USA) and monitored in a Zeiss LSM 880 (Carl Zeiss AG, Oberkochen, Germany) at 37°C. Three regions in each well of each condition in three COPD donors were filmed and analyzed. Beads were tracked in the ImageJ software with the Fiji plugin Tracking and the mean velocity of each bead was plotted.
# [7] = 10 μM spiked into cell media, 18 hrs
# T3 sequence (Q99720 whole entry, species assumed): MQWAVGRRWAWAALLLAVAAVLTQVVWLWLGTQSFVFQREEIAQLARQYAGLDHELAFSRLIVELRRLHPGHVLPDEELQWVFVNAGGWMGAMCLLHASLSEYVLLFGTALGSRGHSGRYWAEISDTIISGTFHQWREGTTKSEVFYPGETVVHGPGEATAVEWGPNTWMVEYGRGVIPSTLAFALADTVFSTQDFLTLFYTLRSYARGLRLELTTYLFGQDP
# T1 sequence (Q9UQL6 whole entry): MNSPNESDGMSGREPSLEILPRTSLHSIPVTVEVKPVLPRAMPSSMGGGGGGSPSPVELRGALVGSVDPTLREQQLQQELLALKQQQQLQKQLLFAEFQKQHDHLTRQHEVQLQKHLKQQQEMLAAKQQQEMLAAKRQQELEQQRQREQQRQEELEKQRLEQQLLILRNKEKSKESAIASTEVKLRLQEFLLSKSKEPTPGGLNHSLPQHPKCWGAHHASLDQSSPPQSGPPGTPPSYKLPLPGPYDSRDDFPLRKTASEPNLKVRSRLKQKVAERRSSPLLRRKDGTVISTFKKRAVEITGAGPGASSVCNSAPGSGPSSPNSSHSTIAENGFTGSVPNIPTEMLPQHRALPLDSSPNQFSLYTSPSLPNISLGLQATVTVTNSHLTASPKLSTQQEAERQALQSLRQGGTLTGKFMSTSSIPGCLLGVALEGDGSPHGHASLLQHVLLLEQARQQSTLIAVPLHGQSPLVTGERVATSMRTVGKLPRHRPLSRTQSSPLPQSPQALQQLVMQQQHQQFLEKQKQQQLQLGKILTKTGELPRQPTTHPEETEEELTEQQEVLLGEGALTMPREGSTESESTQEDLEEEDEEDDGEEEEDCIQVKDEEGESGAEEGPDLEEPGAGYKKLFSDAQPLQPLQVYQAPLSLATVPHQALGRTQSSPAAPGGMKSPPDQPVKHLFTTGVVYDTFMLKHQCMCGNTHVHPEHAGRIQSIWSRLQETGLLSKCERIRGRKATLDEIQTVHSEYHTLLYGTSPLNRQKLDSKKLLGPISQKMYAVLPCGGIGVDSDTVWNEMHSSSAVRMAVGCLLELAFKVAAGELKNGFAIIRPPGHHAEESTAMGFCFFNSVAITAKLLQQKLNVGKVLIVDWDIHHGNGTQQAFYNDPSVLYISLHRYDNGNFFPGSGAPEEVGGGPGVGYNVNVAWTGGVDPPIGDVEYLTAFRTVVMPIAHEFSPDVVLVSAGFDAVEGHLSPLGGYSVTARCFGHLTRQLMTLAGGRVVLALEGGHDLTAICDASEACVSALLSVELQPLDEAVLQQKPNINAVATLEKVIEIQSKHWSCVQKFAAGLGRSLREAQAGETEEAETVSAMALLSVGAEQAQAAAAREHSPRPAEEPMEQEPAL
# T4 sequence (P56524 whole entry): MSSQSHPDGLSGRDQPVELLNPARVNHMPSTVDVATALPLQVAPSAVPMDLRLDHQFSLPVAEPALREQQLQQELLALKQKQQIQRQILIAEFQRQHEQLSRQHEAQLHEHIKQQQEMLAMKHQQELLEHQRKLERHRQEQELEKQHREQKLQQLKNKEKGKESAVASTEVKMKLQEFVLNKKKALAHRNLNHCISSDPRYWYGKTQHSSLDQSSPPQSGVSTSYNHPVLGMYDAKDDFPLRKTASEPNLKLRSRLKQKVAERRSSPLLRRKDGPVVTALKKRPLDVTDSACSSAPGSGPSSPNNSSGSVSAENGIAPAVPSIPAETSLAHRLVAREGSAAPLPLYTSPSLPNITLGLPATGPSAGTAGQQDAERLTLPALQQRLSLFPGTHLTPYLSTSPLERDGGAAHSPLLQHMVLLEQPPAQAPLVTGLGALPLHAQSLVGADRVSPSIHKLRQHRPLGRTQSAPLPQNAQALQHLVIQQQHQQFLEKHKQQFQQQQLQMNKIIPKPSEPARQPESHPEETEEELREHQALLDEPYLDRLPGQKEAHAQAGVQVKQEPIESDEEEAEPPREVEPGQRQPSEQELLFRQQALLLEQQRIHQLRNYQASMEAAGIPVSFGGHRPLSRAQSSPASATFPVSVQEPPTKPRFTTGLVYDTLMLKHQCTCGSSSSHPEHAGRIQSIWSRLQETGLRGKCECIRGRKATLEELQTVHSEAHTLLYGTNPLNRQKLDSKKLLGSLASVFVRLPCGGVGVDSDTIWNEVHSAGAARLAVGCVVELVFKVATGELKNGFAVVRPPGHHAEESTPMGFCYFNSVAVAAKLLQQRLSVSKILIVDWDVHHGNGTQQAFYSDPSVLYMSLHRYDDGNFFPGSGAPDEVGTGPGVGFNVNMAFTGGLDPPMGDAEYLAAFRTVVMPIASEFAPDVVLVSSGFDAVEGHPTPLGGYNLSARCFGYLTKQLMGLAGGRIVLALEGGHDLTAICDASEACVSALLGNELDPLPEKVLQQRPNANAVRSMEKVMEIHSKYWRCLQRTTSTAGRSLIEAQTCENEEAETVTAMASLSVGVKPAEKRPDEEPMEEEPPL
# T2 sequence (Q12809 whole entry): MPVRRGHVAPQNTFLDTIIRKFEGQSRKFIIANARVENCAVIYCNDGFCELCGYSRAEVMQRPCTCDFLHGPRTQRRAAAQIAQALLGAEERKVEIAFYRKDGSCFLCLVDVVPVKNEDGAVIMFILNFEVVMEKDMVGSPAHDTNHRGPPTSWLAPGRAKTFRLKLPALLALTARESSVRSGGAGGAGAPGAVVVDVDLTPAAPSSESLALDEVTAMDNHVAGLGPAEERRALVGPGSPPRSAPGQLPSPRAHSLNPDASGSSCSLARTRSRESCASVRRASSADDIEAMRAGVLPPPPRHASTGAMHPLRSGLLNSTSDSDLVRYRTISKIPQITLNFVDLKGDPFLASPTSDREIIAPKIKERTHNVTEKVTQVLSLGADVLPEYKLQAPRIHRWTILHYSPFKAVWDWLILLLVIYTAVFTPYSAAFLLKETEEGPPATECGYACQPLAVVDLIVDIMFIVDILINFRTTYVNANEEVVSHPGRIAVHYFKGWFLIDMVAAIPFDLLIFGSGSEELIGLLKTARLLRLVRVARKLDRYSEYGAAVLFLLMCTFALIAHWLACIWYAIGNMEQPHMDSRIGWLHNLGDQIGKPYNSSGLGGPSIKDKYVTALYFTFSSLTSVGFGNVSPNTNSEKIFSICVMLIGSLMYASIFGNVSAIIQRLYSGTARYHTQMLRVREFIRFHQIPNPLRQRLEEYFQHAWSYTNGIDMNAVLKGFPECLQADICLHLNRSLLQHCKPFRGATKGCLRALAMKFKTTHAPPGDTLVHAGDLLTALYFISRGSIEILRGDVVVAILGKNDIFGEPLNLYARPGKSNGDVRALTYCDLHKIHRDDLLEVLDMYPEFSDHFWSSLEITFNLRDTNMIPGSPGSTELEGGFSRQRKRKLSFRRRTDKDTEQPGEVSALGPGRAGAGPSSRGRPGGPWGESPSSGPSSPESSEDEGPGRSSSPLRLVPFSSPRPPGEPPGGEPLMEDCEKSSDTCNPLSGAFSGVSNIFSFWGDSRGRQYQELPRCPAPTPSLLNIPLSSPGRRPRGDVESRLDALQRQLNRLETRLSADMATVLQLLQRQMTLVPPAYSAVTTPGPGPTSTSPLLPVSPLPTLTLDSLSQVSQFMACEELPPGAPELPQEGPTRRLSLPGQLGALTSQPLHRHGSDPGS
# T6 sequence (Q01959 whole entry, species assumed): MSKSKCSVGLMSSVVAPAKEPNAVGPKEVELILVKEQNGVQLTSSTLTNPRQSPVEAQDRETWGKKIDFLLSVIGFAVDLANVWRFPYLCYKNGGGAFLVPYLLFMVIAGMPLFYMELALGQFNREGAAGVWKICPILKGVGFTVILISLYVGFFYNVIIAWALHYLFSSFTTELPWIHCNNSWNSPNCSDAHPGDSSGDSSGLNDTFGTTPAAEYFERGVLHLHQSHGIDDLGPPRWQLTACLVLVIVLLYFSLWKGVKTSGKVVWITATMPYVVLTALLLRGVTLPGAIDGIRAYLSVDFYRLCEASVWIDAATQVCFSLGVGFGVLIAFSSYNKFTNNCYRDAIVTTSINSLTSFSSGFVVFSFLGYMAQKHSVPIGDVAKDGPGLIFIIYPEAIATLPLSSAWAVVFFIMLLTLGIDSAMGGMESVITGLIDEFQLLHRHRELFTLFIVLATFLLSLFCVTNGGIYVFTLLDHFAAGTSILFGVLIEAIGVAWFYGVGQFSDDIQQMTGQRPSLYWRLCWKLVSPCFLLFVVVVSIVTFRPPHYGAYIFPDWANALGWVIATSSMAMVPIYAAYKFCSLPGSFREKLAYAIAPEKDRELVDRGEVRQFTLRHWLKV
substance,measurement,setting,value
ACY-1083,IC50,HDAC5,4.17 µM
same,activity on hERG,hERG,> 30 µM
same,drug concentration after 18 hrs,"[1]; 10 μM spiked into ALI cell media in a test tube, 37 °C, LC-MSMS",~4 µM
same,compound lost in the system,[1]; [7],60%
same,remaining after spike test,[1]; [7],approximately 40%
same,IC50,Sigma-1 receptor,17 µM
same,paracellular permeability after CSE challenge,COPD HBEC ALI cultures [2],reduction in permeability at all concentrations
same,IC50,HDAC4,12.5 µM
same,CBF,[3],no effect
same,passage of FITC-dextran (paracellular permeability),COPD HBEC ALI cultures [4],significantly reduced
same,activity on IKs,IKs,> 30 µM
same,IC50,[5],0.37 µM
same,bead velocity (mucociliary clearance),COPD HBEC ALI cultures [6],significantly protected from reduction in speed
